In patent US8680253B2 (OliPass Corporation, priority 2008, dated 2014):
{Fam-L(1)L(1)} = N-terminal fluorescein (Fam) label attached through two L(1) linkers; {Lys-NH2} = C-terminal lysine amide

What was measured:
apoB-100 = settings: a certain population of atherosclerosis patients; cited from earlier work
MCF-7 cells = assay: Cell penetration of fluorescein-tagged PNA oligomers, confocal fluorescence microscopy; format: cell-based, human; settings: 2.5 μM, 0.5 and 1 h, without FBS, 63× objective
Description: (§1) In order to evaluate the cell penetration ability of PNA oligomers of this invention, cancer cells of human origin were treated with PNA oligomers covalently tagged with fluorescein. The applied method is provided in brief as follows.
(§2) To each cover glass (autoclaved) placed in each well of a 24-well plate, were seeded 20,000˜100,000 cells depending on the growth rate of the cell line used, and the cells were cultured at 37° C. and 5% CO2 for 16 to 24 h. Then the medium was replaced with 500 μl fresh Opti-MEM medium (with or without 1% FBS), to which was added an aliquot of aq stock solution of a PNA oligomer covalently tagged with fluorescein. After cells were cultured for a designated interval, the cells were washed with PBS, and fixed by incubating in 3.7% or 4% paraformaldehyde. The cells were thoroughly washed several times with PBS or PBS containing 0.1% Tween-20. Then the cover glass was mounted onto a slide glass using a drop of mounting solution and sealed with nail polish for confocal fluorescence microscopy. Fluorescence images were taken either on a Zeiss LSM 510 confocal microscope (Germany) at 63× objective or on a Nikon C1Si confocal microscope at 40× objective.

HeLa cells = assay: as above; format: cell-based, human; settings: 40× objective
Description: as §1, §2

A549 cells = assay: as above; format: cell-based, human; settings: 2 μM, 24 h, without FBS, 40× objective
Description: as §1, §2

JAR cells = assay: as above; format: cell-based, human; settings: 2 μM, 24 h, without FBS, 40× objective
Description: as §1, §2

Substance: Mipomersen
- clinical activity (apoB-100): due clinical activity

Substance: Fam-L(1)L(1)-TCT-CCC-AGC-GTG-CGC-CAT-Lys-NH2 (TCTCCCAGCGTGCGCCAT; all peptide nucleic acid (PNA), 5' {Fam-L(1)L(1)}, 3' {Lys-NH2}) [Oligo 7, fluorescein-tagged 'unmodified' PNA oligomer, reference compound]
- cell penetration, fluorescence intensity (MCF-7 cells): fluorescence intensity is faint

Substance: Fam-L(1)L(1)-TC(1O3)T-CC(1O3)C-AGC(1O3)-GTG-C(1O3)GC-C(1O3)AT-Lys-NH2 (TCTCCCAGCGTGCGCCAT; Fam-L(1)L(1) label, modified PNA, Lys-NH2, chemistry not fully specified) [Oligo 6, fluorescein-tagged modified PNA oligomer]
- cell penetration, fluorescence intensity (MCF-7 cells): fluorescence intensity is clear and becomes intense over 1 h
- cell penetration, fluorescence intensity (HeLa cells; 1 μM, 6 or 24 h, with 1% FBS): fluorescence intensity is clear and becomes intense over 24 h

Substance: Fam-L(2)-TG(5)G-C(1O2)AA-C(1O2)TG-A(5)T-Lys-NH2 (TGGCAACTGAT; Fam-L(2) label, modified PNA, Lys-NH2, chemistry not fully specified) [Oligo 21, fluorescein-tagged modified PNA oligomer]
- cell penetration, fluorescence intensity (A549 cells): fluorescence intensity is strong
- cell penetration, fluorescence intensity (JAR cells): fluorescence intensity is strong
- cell penetration, fluorescence intensity (HeLa cells; 2 μM, 12 h, without FBS): fluorescence intensity is apparent
- cell penetration, fluorescence intensity (HeLa cells; 2 μM, 24 h, without FBS): significantly stronger than that in FIG. 7(e)
